{"source": "BindingDB's records for doi:10.1021/jm00054a015", "about": "(Merck Research Laboratories, 1993)"}
{"molecular_target": "T1, Dimer of Gag-Pol polyprotein [489-587] (Human immunodeficiency virus 1, UniProt P12497)", "T1 construct": "489-587", "test": "Protease Inhibition Assay", "details": "pH 5.5; 30 °C", "protocol": "Sensitivity of HIV-1 protease activity to protease inhibitors was determined by a peptide substrate cleavage assay. Protease products were analyzed on a reverse-phase high-pressure liquid chromatograph.", "units": {"IC50": "nM"}}
{"compound": "CC(C)(C)NC(=O)C1C[C@@H]2CCCC[C@@H]2CN1C[C@@H](O)[C@H](Cc1ccccc1)NC(=O)O[C@H]1CCCOC1", "note": "(stereo partly drawn) [(3S)-oxan-3-yl N-[(2S,3R)-4-[(4aS,8aS)-3-(tert-butylcarbamoyl)-decahydroisoquinolin-2-yl]-3-hydroxy-1-phenylbutan-2-yl]carbamate]", "IC50": 392}
{"compound": "O=C(N[C@@H](Cc1ccccc1)[C@@H](O)C[C@@H](Cc1ccccc1)C(=O)N[C@H]1c2ccccc2C[C@H]1O)O[C@H]1CCOC1", "note": "[(3S)-oxolan-3-yl N-[(2S,3S,5R)-5-benzyl-3-hydroxy-5-{[(1S,2R)-2-hydroxy-2,3-dihydro-1H-inden-1-yl]carbamoyl}-1-phenylpentan-2-yl]carbamate]", "IC50": "< 0.03"}
{"compound": "O=C(N[C@@H](Cc1ccccc1)[C@@H](O)C[C@@H](Cc1ccccc1)C(=O)N[C@H]1c2ccccc2C[C@H]1O)O[C@H]1CCCOC1", "note": "[(3S)-oxan-3-yl N-[(2S,3S,5R)-5-benzyl-3-hydroxy-5-{[(1S,2R)-2-hydroxy-2,3-dihydro-1H-inden-1-yl]carbamoyl}-1-phenylpentan-2-yl]carbamate]", "IC50": "< 0.03"}
{"compound": "CC(C)(C)NC(=O)C1C[C@@H]2CCCC[C@@H]2CN1C[C@@H](O)[C@H](Cc1ccccc1)NC(=O)OC(C)(C)C", "note": "(stereo partly drawn) [tert-butyl N-[(2S,3R)-4-[(4aS,8aS)-3-(tert-butylcarbamoyl)-decahydroisoquinolin-2-yl]-3-hydroxy-1-phenylbutan-2-yl]carbamate]", "IC50": "> 3000"}
{"compound": "O=C(N[C@@H](Cc1ccccc1)[C@@H](O)C[C@@H](Cc1ccccc1)C(=O)N[C@H]1c2ccccc2C[C@H]1O)O[C@@H]1CCCOC1", "note": "[(3R)-oxan-3-yl N-[(2S,3S,5R)-5-benzyl-3-hydroxy-5-{[(1S,2R)-2-hydroxy-2,3-dihydro-1H-inden-1-yl]carbamoyl}-1-phenylpentan-2-yl]carbamate]", "IC50": "< 0.03"}
{"compound": "CC(C)(C)NC(=O)C1C[C@@H]2CCCC[C@@H]2CN1C[C@@H](O)[C@H](Cc1ccccc1)NC(=O)O[C@H]1C=CCOC1", "note": "(stereo partly drawn) [(3S)-3,6-dihydro-2H-pyran-3-yl N-[(2S,3R)-4-[(4aS,8aS)-3-(tert-butylcarbamoyl)-decahydroisoquinolin-2-yl]-3-hydroxy-1-phenylbutan-2-yl]carbamate]", "IC50": 314}
{"compound": "CC(C)(C)NC(=O)C1C[C@@H]2CCCC[C@@H]2CN1C[C@@H](O)[C@H](Cc1ccccc1)NC(=O)O[C@@H]1CCCOC1", "note": "(stereo partly drawn) [(3R)-oxan-3-yl N-[(2S,3R)-4-[(4aS,8aS)-3-(tert-butylcarbamoyl)-decahydroisoquinolin-2-yl]-3-hydroxy-1-phenylbutan-2-yl]carbamate]", "IC50": 308}
{"compound": "CC(C)(C)NC(=O)C1C[C@@H]2CCCC[C@@H]2CN1C[C@@H](O)[C@H](Cc1ccccc1)NC(=O)O[C@@H]1C=CCOC1", "note": "(stereo partly drawn) [(3R)-3,6-dihydro-2H-pyran-3-yl N-[(2S,3R)-4-[(4aS,8aS)-3-(tert-butylcarbamoyl)-decahydroisoquinolin-2-yl]-3-hydroxy-1-phenylbutan-2-yl]carbamate]", "IC50": 48.9}
